Assay results taken from patent US6808699B2, “Methods for imaging pulmonary and cardiac vasculature and evaluating blood flow using dissolved polarized 129Xe” (Medi-Physics, Inc., priority 1998, dated 2004).
Read-outs that look alike come from different tables or passages of the source.

Legend:
[1] = cited from earlier work; for longitudinal relaxation time T1: dissolved phase, estimated
[2] = longitudinal relaxation time T1 of polarized 129Xe; format: physicochemical, human; details: gas in the lung, with decay due to blood uptake included
Text: As will be appreciated by those of skill in the art, imaging with polarized dissolved gas depends on transport of sufficient surviving polarization or magnetization to tissues of interest. In a preferred embodiment, the tissues of interest include the pulmonary region, and particularly the pulmonary vasculature. As will also be appreciated by those of skill in the art, polarization decays corresponding to the longitudinal relaxation time, T1. Dissolved phase ^129Xe can have a relatively short relaxation time (T1) generally thought to be due to the presence of oxygen and due to paramagnetic deoxyhemoglobin in the blood. For example, T1 for substantially fully oxygenated human cell membranes is estimated at about 15 seconds. Alternatively, T1 in blood has also been estimated as about 5 seconds. See A. Bifone et al., 93 Proc. Natl. Acad. Sci., p. 12932 (1996). Taking the estimated upper limit of about a five second transit time to the heart as discussed above, the xenon polarization can be attenuated to about ⅓ of its starting value at the heart. This relationship supports that TR should be shortened to less than about 2.5 seconds, and preferably less than about 1-2 seconds. Correspondingly, with about a 2.5 second transit time, the magnetization can be calculated as noted above to be about 0.61 of its starting magnetization. […]

effective T1 [2]: about 33 seconds
SMILES: [129Xe] [^129Xe, Xenon-129]
longitudinal relaxation time T1 ([1]; in blood, Bifone et al. 1996): about 5 seconds
longitudinal relaxation time T1 ([1]; substantially fully oxygenated human cell membranes): about 15 seconds
gas phase T1 ([1]; gas phase in the lungs, estimated from generally known oxygen related effects): about 35 seconds
